# In publication PMC6934184, “Selective DNA-PKcs inhibition extends the therapeutic index of localized radiotherapy and chemotherapy” (The Journal of Clinical Investigation, 2019):
# Biological target: T1, FLT4 (VEGFR3) (Homo sapiens, UniProt P35916)
# T1 construct: purchased Thermo Fisher Scientific (Life Technologies) SelectScreen
# Assay: SelectScreen Z'LYTE
# Format: biochemical
# In short: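 SelectScreen broad panel; activity (Z'LYTE, Adapta) plus binding formats. ATP: Km app for CSF1R Z'LYTE; 10 for CAMK1 Adapta. Readout = % per kinase.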
# T1 sequence (P35916 25-1363): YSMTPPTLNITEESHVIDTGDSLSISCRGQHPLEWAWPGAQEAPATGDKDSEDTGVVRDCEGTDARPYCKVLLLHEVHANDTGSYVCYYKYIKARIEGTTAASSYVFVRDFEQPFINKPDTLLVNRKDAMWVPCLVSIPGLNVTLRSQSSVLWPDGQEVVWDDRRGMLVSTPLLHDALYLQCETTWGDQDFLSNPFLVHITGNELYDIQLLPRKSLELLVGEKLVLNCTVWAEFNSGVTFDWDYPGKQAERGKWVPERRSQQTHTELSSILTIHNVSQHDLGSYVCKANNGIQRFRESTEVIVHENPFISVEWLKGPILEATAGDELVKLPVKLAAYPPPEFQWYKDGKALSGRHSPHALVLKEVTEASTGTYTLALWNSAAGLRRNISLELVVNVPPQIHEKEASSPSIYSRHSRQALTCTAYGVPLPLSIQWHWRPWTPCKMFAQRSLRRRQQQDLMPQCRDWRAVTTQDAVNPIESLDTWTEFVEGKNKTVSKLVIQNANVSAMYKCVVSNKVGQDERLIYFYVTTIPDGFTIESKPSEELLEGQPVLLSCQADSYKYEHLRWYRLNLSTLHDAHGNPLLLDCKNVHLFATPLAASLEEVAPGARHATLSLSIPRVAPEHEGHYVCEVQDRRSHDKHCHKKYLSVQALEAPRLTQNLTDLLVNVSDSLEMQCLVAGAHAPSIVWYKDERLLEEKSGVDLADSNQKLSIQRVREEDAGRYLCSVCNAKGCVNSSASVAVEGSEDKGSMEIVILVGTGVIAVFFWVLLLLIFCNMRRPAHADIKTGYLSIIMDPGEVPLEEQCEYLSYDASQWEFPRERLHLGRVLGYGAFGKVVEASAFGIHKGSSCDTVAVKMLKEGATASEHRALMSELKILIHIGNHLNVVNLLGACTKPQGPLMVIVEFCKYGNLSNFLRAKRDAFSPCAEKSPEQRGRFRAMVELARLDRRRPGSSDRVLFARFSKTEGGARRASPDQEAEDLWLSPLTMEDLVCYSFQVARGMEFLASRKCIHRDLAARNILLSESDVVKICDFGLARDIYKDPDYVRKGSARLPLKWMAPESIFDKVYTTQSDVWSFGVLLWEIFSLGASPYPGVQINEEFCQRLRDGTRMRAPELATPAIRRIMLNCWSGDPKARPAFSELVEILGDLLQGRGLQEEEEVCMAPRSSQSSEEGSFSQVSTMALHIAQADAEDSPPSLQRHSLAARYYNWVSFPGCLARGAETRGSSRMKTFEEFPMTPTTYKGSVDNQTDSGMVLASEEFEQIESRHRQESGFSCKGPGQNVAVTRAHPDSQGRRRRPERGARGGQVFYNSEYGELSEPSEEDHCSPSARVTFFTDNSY
compound,measurement,value
CN(C(=O)CN1CCOCC1)c1ccc2sc3c(-c4cccc5c(=O)cc(N6CC7CCC(C6)O7)oc45)cccc3c2c1 [NU5455],inhibition at 1 µM,3.5%
